Test [1] concerns the target T1, RsChlE (Rhizoctonia solani, UniProt A0A1D0BQV8).
T1 sequence (A0A1D0BQV8 39-563): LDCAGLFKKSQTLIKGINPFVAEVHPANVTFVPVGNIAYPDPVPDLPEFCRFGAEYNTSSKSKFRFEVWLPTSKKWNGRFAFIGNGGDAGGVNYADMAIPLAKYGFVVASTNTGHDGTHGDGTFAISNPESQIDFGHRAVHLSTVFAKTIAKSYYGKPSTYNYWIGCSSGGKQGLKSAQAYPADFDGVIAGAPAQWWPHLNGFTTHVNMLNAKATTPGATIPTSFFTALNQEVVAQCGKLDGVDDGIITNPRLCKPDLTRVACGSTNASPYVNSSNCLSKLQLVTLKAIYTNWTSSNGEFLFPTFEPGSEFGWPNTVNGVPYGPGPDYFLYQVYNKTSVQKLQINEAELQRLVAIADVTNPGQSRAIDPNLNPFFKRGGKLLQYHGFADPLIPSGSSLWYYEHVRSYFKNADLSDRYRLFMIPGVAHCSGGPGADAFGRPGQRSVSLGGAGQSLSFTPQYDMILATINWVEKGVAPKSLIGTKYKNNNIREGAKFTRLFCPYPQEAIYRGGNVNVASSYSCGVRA
Briefly: Substrate specificity of purified RsChlE. The test is classed as biochemical. Conditions: 1 mM (or 1.95 mM) substrate, 1 h, 30 °C, 50 mM Bis-Tris pH 6.0. As to the method:
(§1) Chlorogenic acid esterase activity was determined at 37 °C in 50 mM Tris buffer at pH 7.5 using chlorogenic acid and methyl ferulate as standard substrates, unless otherwise stated. The release of the corresponding free acids was analyzed with HPLC-UV. If appropriate, the hydrolysis of other benzoic and cinnamic acid ester derivatives as well as feruloylated saccharides was measured with the same method. After incubation for one hour the reaction was terminated by doubling the reacting volume with acetonitrile. Samples were centrifuged (15 min, 15.000 × g) before injection to the HPLC (Chromolith Performance RP-18e reverse-phase column, 100 × 4.6 mm, Merck, Darmstadt, Germany). […] Substance elution was detected at 232 nm (benzoic and 3-hydroxybenzoic acid), 254 nm (4-hydroxybenzoic and vanillic acid), 275 nm (cinnamic and gallic acid), 306 nm (p-coumaric acid) and 323 nm (ferulic, caffeic, chlorogenic and sinapic acid) using a Shimadzu UV-Vis detector (SPD-10A VP, Shimadzu Deutschland GmbH, Duisburg, Germany). One unit of enzyme activity was defined as the amount of enzyme releasing one µmοl of free acid per minute under the specified conditions. All measurements were performed at least twice.
After purification of the recombinant RsChlE from the culture supernatant of Pichia pastoris with Ni-NTA, the enzyme was biochemically characterized. The experiments were performed like for UmChlE. pH and temperature optimums were analyzed. […] Table 4: Substrate specificity of purified RsChIE.
Purified RsChlE was incubated with 1 mM, or in an alternative experiment, 1.95 mM of different substrates for 1 h (at 30 °C, 50 mM Bis-Tris buffer pH 6.0). […] Numbers in parentheses are the estimates of the standard error.

In test [2] the target is T2, UmChlE (Mycosarcoma maydis, UniProt A0A060S684, P492L).
T2 construct: purification of the chlorogenic acid esterase UmChlE from culture supernatant of U. maydis was accomplished by three complementary separation steps; made in house; host or cells: Ustilago maydis itself (native producer), culture supernatant; Q Sepharose FF, preparative IEF, polyamide column
The format is biochemical, Ustilago maydis. The note with it: 1 mM (or 1.95 mM) substrate, 1 h, 37 °C, 50 mM Tris pH 7.5, ND = activity not detectable; for Relative esterase activity: chlorogenic acid = 100 %, standard error in parentheses. On the procedure:
as §1
Substrate specificity of the UmChlE was determined towards different cinnamate and benzoate esters as well as natural substrates, such as F-A, F-AX and F-AXG, with activity assays as described above. Three mM stock solutions of all substrates were prepared in water.
Purified UmChlE was incubated with 1 mM, or, in a further experiment, 1.95 mM of different substrates for 1 h (at 37 °C, 50 mM Tris buffer pH 7.5). Relative enzyme activities were calculated based on the most preferred substance of the UmChIE: chlorogenic acid which was set to 100 %. Numbers in parentheses are the estimates of the standard error.

For test [3], the target named is T2, UmChlE. The test is described as follows: biochemical. The format is biochemical, Ustilago maydis. The note with it: for Relative esterase activity: 1 h, 37 °C, 50 mM Tris pH 7.5. On the procedure: as §1
Enzyme tolerance to different solvents was investigated in the presence of 50 % (v/v) acetone, acetonitrile, diethyl ether, DMF, DMSO, ethanol, isoamyl alcohol, isobutyl alcohol, isopropanol, methanol, n-hexane, n-heptane, tert-butyl methyl ether or toluene, respectively, in 50 mM Tris buffer pH 7.5 containing 0.7 mM substrate. In an additional experiment, 0.84 mM substrate was used. After incubation (60 min, 37 °C, 900 rpm) the mixture was applied for HPLC analysis as described above. […] The effect of high salt concentrations (0.1 - 3 M NaCl) on enzyme activity was investigated, too.
Various metal ions and enzyme inhibitors were examined for their effect on chlorogenic acid esterase activity (Table 2). […] Hg^2+ reacts with thiol groups and can also reduce disulphide bonds (40). […] Table 2 Effect of metal ions, inhibitors and NaCl on UmChIE activity.
Remaining enzyme activity was measured after 1 h incubation with 1mM, or, in a further experiment, 1.95 mM methyl ferulate and different metal ions as well as inhibitors in concentrations listed above (at 37 °C, 50 mM Tris buffer pH 7.5). Numbers in parentheses are the estimates of the standard error. A sample without additive was used for the calculation of relative enzyme activities. ND: activity not detectable.

The mark [4] stands for this setting: 5 mM additive, 1 mM (or 1.95 mM) methyl ferulate, without additive = 100 %, standard error in parentheses, ND = activity not detectable.

These results are taken from patent EP3539977B1, “ENZYMES WITH CHLOROGENIC ACID ESTERASE ACTIVITY AND FERULOYL ESTERASE ACTIVITY” (SternEnzym GmbH & Co. KG, priority 2014, dated 2016).

“And” between values parts separate entries of the source, which are not always exact repeats. Equal values may be shown once. Read-outs that look alike come from different tables or passages of the source.

T2 sequence (A0A060S684 22-585, stated change not applied): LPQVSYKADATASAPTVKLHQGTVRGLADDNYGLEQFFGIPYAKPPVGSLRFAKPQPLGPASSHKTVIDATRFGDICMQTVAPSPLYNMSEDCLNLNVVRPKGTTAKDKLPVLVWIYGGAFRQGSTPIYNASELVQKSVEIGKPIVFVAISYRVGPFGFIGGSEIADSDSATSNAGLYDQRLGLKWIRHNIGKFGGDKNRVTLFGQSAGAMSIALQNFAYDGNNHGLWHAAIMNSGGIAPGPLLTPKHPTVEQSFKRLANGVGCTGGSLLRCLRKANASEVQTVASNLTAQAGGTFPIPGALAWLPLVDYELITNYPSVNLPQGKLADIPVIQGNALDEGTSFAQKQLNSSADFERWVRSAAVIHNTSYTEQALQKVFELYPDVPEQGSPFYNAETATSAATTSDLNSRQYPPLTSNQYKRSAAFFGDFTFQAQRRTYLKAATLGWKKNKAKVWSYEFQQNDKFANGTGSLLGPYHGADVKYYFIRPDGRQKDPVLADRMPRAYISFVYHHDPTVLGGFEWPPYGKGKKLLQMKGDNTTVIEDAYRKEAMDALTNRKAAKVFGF

For `CCOC(=O)C=Cc1ccccc1` [ethyl cinnamate], the Specific activity in test [1] is 0.91 U/mg.
The compound `CCOC(=O)/C=C/c1ccc(O)c(OC)c1` [ethyl ferulate] gave a Specific esterase activity in test [2] of 0.78 U mg^-1. The Specific activity in test [1] was determined as 3.60 U/mg.
For `[Cl-].[Cl-].[Co+2]` [CoCl2], the Relative esterase activity is reported as 67 (0.11) % in test [3] (setting [4]) and 50 - 76% in test [3] (5 mM additive, 1 mM (or 1.95 mM) methyl ferulate, without additive = 100 %, standard error in parentheses, ND = activity not detectable, listed as Co^2+).
As to `O=S(=O)([O-])[O-].[Mn+2]` [MnSO4], the Relative esterase activity in test [3] (setting [4]) was 90 (0.09) %; in test [3] (5 mM additive, 1 mM (or 1.95 mM) methyl ferulate, without additive = 100 %, standard error in parentheses, ND = activity not detectable, listed as Mn^2+), 90%.
Consider `[Cl-].[Cs+]` [CsCl], for which the Relative esterase activity in test [3] (setting [4]) is given as 105 (1.21) %.
In the case of `[Cl-].[Cl-].[Mg+2]` [MgCl2], the Relative esterase activity in test [3] (setting [4]) was 106 (0. 53) %.
On to `COc1cc(/C=C/C(=O)OC[C@@H]2OC(O)[C@H](O)[C@H]2O)ccc1O` (stereo partly drawn) [F-A, 5-O-trans-feruloyl-L-arabinofuranose], for which, in test [2], the Specific esterase activity was 2.0 U mg^-1 and 2.06 U mg^-1. In addition, in test [1], the Specific activity was 4.48 U/mg.
For the compound `COC(=O)/C=C/c1cc(OC)c(O)c(OC)c1` [methyl sinapate], the Relative esterase activity entry in test [2] is reported as “no”; in test [2] (listed as MSA), “total loss of activity”.
Turning to `O=S(=O)([O-])[O-].O=S(=O)([O-])[O-].O=S(=O)([O-])[O-].[Al+3].[Al+3]` [Al2(SO4)3], the Relative esterase activity in test [3] (setting [4]) was 53 (0.12) %; in test [3] (5 mM additive, 1 mM (or 1.95 mM) methyl ferulate, without additive = 100 %, standard error in parentheses, ND = activity not detectable, listed as Al^3+), 50 - 76%.
Take `COc1cc(/C=C/C(=O)OC[C@@H]2OC(O)[C@H](O[C@@H]3OC[C@@H](O)[C@H](O)[C@H]3O[C@@H]3O[C@@H](CO)[C@@H](O)[C@@H](O)[C@@H]3O)[C@H]2O)ccc1O` (stereo partly drawn) [F-AXG, α-L-galactopyranosyl-(1→2)-β-D-xylopyranosyl-(1→2)-5-O-trans-feruloyl-L-arabinofuranose]: the Specific esterase activity in test [2] is 0.9 U mg^-1 and 0.92 U mg^-1. In test [1], this compound yielded a Specific activity of 3.66 U/mg.
As to `O=S(=O)([O-])[O-].[Ni+2]` [NiSO4], in test [3] (setting [4]), the Relative esterase activity is given as 108 (0.87) %.
With `COC(=O)/C=C/c1ccc(O)c(O)c1` [methyl caffeate], the Specific esterase activity in test [2] is 0.49 U mg^-1. The compound further gave a Specific activity in test [1] of 4.61 U/mg.
With `[Ca+2].[Cl-].[Cl-]` [CaCl2], in test [3] (setting [4]), the Relative esterase activity is 103 (2.76) %.
On the same count and under the same terms, to `O=[N+]([O-])[O-].O=[N+]([O-])[O-].[Cu+2]` [Cu(NO3)2] belongs 96 (0.53) %.
The same measure, in the same setting: next, `CC(=O)[O-].CC(=O)[O-].[Hg+2]` [HgAc2]: “complete loss of enzyme activity”.
With `CCCCCCCCCCCCOS(=O)(=O)O` [SDS], the inhibition at 5000 µM in test [3] (read-out: enzyme activity was inhibited) is 41%.
With `O=[N+]([O-])[O-].O=[N+]([O-])[O-].O=[N+]([O-])[O-].[Cr+3]` [Cr(NO3)3], the Relative esterase activity is given as 69 (3.54) % in test [3] (setting [4]) and 50 - 76% in test [3] (5 mM additive, 1 mM (or 1.95 mM) methyl ferulate, without additive = 100 %, standard error in parentheses, ND = activity not detectable, listed as Cr^3+).
Take `COC(=O)C=Cc1ccccc1` [methyl cinnamate]: the Specific activity in test [1] worked out at 2.10 U/mg.
As to `O=[N+]([O-])[O-].O=[N+]([O-])[O-].[Sr+2]` [SrNO3], the Relative esterase activity in test [3] (setting [4]) is 104 (0,18) %.
On the same count and under the same terms, next, `[Cl-].[Li+]` [LiCI]: 106 (1.39) %.
On to `[Cl-].[Na+]` [NaCl], for which the Relative esterase activity in test [3] (100 mM additive, methyl ferulate) was 105 (0.02) %; in test [3] (500 mM additive, methyl ferulate), 121 (0.01) %; in test [3] (1000 mM additive, methyl ferulate), 125 (0.02) %; in test [3] (2000 mM additive, methyl ferulate) it was 142 (0.06) %; in test [3] (3000 mM (3 M) additive, methyl ferulate), 150% and 150 (0.04) %.
Regarding `[Cl-].[K+]` [KCI], the Relative esterase activity in test [3] (setting [4]) was 108 (0.57) %.
On to `[Cl][Fe]([Cl])[Cl]` [FeCl3], for which, in test [3] (setting [4]), the Relative esterase activity is 66 (0.65) %.
`O=S(=O)([O-])[O-].[Fe+2]` [FeSO4]: in test [3] (setting [4]), the Relative esterase activity is reported as 102 (0.50) %.
Consider `O=S(=O)([O-])[O-].[Zn+2]` [ZnSO4], for which the Relative esterase activity is on record as 76 (1.26) % in test [3] (setting [4]) and 50 - 76% in test [3] (5 mM additive, 1 mM (or 1.95 mM) methyl ferulate, without additive = 100 %, standard error in parentheses, ND = activity not detectable, listed as Zn^2+).
